{"source": "ChEMBL document CHEMBL1201862", "about": "“PubChem BioAssay data set” (2004)", "key": {"cells": {"test": "cells", "format": "functional, cell-based"}, "[1]": {"test": "CEM21 lymphoblast cell cytotoxicity, dose response, cytotoxicity control for viral fusion inhibitor project, CellTiter-Glo luminescence, cherry-picked (AID 652042);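 also: potency for signal decrease meaning cytotoxicity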", "format": "functional, cell-based"}, "[2]": {"test": "inhibitors of HIV Env-driven cell fusion, dose response, cherry-pick (AID 652057)", "format": "functional, cell-based"}, "[3]": {"test": "cytotoxicity toward NIH3T3 fibroblasts, dose response, counter-screen, cell-based, ATP luminescence, mouse fibroblasts (AID 2010);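 also: cells exposed to compound for about 90 hours before reading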", "format": "functional"}, "[4]": {"target": "Cyclin-dependent kinase 9 (Homo sapiens, UniProt P50750)", "sequence (P50750 whole entry)": "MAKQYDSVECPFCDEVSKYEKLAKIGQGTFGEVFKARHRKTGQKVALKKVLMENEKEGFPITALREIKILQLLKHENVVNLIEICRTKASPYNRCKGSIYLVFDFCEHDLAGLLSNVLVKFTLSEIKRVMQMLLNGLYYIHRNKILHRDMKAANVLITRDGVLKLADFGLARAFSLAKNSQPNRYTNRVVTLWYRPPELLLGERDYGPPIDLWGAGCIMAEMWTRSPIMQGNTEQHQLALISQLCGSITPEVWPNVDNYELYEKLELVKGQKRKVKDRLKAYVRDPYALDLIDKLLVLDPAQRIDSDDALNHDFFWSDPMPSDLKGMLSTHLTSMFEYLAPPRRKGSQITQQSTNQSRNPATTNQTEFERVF", "format": "functional"}, "[5]": {"target": "T1, Replicative DNA helicase DnaB (Mycobacterium tuberculosis, UniProt P9WMR3)", "T1 sequence (P9WMR3 whole entry)": "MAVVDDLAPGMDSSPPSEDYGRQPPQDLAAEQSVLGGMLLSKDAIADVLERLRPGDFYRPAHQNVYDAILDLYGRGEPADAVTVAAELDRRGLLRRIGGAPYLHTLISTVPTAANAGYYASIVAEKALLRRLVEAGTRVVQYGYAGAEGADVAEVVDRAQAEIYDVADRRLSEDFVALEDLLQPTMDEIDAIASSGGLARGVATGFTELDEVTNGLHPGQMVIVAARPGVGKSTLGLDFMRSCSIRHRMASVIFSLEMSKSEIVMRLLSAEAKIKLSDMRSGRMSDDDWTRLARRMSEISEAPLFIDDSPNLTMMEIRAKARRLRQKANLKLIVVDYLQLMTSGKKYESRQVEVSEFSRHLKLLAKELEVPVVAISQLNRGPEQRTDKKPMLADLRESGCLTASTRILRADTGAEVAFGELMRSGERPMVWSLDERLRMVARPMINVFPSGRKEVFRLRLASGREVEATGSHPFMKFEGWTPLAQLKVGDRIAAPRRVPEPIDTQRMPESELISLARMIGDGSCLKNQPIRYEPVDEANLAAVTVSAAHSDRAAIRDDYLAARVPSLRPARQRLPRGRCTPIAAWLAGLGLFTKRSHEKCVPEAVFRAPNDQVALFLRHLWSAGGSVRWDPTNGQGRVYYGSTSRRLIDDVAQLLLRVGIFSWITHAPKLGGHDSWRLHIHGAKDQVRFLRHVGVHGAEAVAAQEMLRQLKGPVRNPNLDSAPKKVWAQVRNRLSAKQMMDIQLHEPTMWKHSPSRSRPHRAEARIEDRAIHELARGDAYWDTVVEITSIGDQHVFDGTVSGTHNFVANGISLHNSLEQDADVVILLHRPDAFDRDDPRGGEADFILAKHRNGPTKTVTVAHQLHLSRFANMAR", "test": "DnaB intein splicing inhibitors, dose response, biochemical, cell-free fluorescence (AID 449749)", "format": "functional"}, "[6]": {"test": "Counterscreen for antagonists of the orexin 1 receptor (OX1R; HCRTR1): Fluorescence-based cell-based high throughput dose response assay to identify antagonists of the parental CHO cell line. [Related pubchem assays (depositor defined):AID434989, AID435008, AID463079, AID485270, AID492963, AID492964, AID492965, AID493232, AID504699, AID504701]", "format": "functional"}, "[7]": {"target": "Sphingosine 1-phosphate receptor 2 (Homo sapiens, UniProt O95136)", "sequence (O95136 whole entry)": "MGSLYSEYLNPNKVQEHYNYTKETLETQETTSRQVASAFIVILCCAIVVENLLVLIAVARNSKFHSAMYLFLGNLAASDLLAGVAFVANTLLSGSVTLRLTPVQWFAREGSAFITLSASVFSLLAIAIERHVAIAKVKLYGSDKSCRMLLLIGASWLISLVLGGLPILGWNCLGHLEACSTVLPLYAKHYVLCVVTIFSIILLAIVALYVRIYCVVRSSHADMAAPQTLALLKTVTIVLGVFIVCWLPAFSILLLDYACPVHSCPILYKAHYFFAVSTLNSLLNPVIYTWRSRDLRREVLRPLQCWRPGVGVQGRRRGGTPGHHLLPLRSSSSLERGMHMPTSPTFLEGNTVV", "test": "Dose Response Cell Based Assay for Antagonists of the S1P2 Receptor. [Related pubchem assays: 856, 736 ]", "format": "functional"}, "[8]": {"target": "Peroxisome proliferator-activated receptor gamma/Nuclear receptor corepressor 2 (Homo sapiens, UniProt P37231+Q9Y618)", "sequence (P37231 whole entry)": "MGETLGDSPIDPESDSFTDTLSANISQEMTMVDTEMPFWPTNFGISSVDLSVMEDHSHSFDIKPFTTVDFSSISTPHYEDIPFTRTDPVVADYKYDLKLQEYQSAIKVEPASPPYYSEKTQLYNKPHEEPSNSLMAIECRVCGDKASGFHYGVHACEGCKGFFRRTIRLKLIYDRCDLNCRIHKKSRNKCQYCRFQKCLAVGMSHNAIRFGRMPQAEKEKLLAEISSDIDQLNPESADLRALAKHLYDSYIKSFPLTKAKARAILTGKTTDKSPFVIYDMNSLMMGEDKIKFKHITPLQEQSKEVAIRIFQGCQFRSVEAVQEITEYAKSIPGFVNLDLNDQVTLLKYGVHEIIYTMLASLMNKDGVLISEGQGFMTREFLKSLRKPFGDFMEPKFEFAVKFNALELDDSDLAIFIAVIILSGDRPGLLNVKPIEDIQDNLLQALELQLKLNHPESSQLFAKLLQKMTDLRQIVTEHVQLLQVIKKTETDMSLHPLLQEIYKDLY", "sequence (Q9Y618 whole entry)": "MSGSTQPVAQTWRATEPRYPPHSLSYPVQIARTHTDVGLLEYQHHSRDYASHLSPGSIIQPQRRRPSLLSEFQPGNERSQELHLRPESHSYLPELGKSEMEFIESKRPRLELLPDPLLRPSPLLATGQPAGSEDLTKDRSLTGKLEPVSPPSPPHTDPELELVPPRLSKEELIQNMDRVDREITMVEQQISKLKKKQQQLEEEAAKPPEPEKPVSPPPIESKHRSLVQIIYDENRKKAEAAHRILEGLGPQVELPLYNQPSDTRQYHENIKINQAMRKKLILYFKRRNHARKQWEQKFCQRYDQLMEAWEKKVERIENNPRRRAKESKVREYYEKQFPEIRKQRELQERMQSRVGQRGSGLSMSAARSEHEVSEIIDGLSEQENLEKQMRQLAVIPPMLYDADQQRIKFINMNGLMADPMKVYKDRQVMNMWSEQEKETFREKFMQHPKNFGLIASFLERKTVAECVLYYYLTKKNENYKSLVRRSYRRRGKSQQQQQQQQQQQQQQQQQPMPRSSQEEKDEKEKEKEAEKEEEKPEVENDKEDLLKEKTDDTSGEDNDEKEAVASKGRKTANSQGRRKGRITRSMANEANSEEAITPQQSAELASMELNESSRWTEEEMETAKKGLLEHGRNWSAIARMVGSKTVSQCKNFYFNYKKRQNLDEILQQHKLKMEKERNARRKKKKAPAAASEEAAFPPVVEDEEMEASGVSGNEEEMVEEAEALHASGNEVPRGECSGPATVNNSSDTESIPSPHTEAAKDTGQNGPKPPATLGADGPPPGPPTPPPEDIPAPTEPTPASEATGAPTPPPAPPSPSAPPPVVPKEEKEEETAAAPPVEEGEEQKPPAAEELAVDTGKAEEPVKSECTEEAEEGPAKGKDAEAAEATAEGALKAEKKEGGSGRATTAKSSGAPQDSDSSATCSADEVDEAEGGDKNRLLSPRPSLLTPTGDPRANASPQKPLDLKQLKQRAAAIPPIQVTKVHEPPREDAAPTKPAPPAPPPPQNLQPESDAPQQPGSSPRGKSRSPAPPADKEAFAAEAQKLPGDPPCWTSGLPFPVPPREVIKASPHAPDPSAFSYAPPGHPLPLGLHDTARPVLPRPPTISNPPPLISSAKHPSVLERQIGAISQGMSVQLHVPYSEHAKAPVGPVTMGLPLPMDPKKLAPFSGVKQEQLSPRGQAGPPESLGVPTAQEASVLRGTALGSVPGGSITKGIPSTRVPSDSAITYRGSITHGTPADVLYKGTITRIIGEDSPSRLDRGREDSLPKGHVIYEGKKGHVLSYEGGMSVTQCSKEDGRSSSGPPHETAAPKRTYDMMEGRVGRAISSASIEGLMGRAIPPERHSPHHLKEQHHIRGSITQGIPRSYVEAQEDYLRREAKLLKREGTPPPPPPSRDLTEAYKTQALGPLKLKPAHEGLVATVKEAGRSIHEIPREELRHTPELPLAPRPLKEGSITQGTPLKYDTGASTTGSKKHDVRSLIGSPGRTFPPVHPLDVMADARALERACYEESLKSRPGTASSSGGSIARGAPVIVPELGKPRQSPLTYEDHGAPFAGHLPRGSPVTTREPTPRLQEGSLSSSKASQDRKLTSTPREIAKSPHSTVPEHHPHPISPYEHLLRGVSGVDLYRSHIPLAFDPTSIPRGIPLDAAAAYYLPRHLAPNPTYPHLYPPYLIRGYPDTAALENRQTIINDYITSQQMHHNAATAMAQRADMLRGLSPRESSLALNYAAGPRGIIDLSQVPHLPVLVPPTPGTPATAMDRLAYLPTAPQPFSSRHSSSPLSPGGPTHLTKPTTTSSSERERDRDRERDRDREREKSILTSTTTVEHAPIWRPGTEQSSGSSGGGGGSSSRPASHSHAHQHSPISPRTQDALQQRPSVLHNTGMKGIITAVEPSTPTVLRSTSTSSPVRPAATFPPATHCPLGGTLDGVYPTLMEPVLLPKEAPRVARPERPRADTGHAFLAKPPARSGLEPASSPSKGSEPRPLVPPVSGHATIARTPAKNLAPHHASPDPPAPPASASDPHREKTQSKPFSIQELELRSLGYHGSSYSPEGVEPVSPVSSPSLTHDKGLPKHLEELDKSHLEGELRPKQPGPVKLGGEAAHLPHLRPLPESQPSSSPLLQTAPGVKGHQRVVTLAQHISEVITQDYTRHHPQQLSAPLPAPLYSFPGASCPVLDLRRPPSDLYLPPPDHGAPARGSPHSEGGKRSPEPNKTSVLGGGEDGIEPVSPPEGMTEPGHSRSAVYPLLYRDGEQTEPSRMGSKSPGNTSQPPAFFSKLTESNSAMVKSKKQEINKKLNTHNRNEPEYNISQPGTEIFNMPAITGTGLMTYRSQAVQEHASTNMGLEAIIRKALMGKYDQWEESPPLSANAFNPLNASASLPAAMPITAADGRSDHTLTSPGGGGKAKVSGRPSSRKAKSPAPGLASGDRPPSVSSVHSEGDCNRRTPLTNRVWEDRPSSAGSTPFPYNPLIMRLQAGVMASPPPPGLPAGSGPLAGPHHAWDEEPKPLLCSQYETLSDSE", "format": "functional"}, "[9]": {"target": "T2, 1-phosphatidylinositol 4,5-bisphosphate phosphodiesterase beta-3 (Homo sapiens, UniProt Q01970)", "T2 sequence (Q01970 whole entry)": "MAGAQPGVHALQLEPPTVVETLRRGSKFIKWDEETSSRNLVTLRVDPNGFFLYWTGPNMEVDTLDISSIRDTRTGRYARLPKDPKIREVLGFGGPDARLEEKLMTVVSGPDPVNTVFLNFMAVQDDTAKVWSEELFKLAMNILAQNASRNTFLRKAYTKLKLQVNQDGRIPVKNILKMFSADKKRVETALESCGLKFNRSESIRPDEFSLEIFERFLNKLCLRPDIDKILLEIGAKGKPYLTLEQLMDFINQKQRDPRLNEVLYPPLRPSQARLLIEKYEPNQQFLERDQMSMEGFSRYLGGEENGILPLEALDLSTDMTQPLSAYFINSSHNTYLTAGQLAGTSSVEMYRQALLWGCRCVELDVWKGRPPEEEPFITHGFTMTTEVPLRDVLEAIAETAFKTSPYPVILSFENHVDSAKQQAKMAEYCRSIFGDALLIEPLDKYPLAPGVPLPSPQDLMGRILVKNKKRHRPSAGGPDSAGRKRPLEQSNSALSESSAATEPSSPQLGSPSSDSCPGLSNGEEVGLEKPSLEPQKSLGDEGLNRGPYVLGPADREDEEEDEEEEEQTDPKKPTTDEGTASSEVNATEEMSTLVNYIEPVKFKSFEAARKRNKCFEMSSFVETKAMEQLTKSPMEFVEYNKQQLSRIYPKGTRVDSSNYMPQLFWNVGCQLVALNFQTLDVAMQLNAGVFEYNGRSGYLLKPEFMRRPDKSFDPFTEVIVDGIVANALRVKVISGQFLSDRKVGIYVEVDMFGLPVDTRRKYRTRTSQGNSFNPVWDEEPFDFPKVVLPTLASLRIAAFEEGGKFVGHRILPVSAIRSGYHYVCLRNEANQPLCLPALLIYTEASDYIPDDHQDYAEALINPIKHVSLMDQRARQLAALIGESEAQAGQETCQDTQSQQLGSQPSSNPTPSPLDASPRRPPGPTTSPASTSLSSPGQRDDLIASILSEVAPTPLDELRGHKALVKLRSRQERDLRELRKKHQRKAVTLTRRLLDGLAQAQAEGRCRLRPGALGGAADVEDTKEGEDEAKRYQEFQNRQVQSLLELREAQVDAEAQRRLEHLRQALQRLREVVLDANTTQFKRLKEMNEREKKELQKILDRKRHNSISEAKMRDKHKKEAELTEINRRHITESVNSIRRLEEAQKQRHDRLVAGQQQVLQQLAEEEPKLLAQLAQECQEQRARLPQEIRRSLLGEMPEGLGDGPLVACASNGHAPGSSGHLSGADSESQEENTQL", "test": "Fluorescence-based biochemical high throughput dose response assay to identify inhibitors of phospholipase C isozymes (PLC-B3)."}, "ORF 73": {"target": "ORF 73 (Human herpesvirus 8, UniProt O40947)", "sequence (O40947 whole entry)": "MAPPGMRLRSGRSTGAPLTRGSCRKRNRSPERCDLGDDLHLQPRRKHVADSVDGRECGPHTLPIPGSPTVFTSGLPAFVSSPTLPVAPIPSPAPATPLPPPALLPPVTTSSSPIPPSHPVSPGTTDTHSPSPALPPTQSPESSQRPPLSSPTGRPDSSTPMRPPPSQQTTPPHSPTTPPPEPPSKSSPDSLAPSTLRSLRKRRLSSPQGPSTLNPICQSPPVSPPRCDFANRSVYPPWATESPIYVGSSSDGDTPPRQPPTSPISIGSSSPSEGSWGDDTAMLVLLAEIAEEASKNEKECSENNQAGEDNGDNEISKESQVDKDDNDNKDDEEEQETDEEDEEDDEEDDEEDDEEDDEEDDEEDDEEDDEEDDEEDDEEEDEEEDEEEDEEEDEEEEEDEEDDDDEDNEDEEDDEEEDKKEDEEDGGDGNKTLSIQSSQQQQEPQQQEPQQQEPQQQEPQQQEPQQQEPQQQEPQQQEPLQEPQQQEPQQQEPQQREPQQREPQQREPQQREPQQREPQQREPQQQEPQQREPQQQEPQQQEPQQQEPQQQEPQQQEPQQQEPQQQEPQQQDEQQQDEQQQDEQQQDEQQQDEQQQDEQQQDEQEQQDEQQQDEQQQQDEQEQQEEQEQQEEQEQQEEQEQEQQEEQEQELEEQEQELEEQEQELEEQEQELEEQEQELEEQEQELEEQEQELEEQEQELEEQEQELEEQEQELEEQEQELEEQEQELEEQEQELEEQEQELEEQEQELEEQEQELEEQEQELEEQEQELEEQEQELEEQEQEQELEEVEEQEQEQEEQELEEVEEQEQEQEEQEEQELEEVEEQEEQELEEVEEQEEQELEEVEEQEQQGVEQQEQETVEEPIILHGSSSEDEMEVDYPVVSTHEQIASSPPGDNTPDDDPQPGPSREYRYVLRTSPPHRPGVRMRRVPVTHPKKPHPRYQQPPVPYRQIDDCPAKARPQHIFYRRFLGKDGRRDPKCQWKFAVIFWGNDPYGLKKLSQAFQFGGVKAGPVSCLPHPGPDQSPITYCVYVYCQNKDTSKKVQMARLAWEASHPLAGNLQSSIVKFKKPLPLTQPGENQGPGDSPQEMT", "test": "inhibitors of C-LANA binding to LBS DNA, dose response, biochemical, fluorescence polarization, cherry-picked samples (AID 504725);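 also: fluorescence polarization of a labeled DNA duplex reporting LANA DNA binding; potency is for inhibitors that block LANA binding to the DNA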", "design": "species or system Human gammaherpesvirus 8"}}, "note": "Calls of active or inactive are those of the source.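 For Ki in this document: value from the CDK9 entry of a kinome-spanning kinase panel.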", "data": [{"smiles": "CCCC(=O)NC(c1cccs1)c1cc(Cl)c2cccnc2c1O", "note": "(stereo unspecified)", "values": [{"measurement": "EC50", "setting": "cells", "value": "24.4 µM (active)"}, {"measurement": "AC50", "setting": "[1]", "value": "25.1 µM (active)"}, {"measurement": "AC50", "setting": "[2]", "value": "4.9 µM (active)"}, {"measurement": "EC50", "setting": "[3]", "value": "2.61 µM (active)"}]}, {"smiles": "O=C(Nc1cccc(C2Nc3ccc4ccccc4c3C3C=CCC32)c1)c1ccc(F)cc1", "note": "(stereo unspecified)", "values": [{"measurement": "Ki", "setting": "[4]", "value": "0.251 µM (active)"}]}, {"smiles": "Cc1ccc(C(=O)OCn2ncc(Cl)c(Cl)c2=O)cc1", "values": [{"measurement": "AC50", "setting": "[5]", "value": "3.66 µM (active)"}, {"measurement": "IC50", "setting": "[6]", "value": "> 49.7 µM (inactive)"}, {"measurement": "IC50", "setting": "[7]", "value": "2.65 µM (active)"}]}, {"smiles": "O=C(O)CC(C(=O)O)N1C(=O)/C(=C/C=C/c2ccco2)SC1=S", "note": "(stereo unspecified)", "values": [{"measurement": "IC50", "setting": "[8]", "value": "> 39.8 µM (not active)"}, {"measurement": "IC50", "setting": "[9]", "value": "> 122 µM (inactive)"}, {"measurement": "AC50", "setting": "ORF 73", "value": "28.9 µM (active)"}]}]}
